Reference: US20130102595A1 (Curis, Inc., priority 2011, published 2013)

Experiments:
[1] = tested on: HDACs (HeLa cell nuclear extracts); assay: HDAC enzymatic activity, Biomol Color de Lys system; format: biochemical; settings: 1 hour, 25° C.
Summary of the method: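 IC50 from sigmoidal fit of developer-terminated fluorescence (ex 350-380/em 440-460 nm). Reaction: 1 h at room temperature (25 °C), HeLa nuclear extract as HDAC source, artificial substrate, buffer of 50 mM Tris/Cl pH 8.0 with 137 mM NaCl, 2.7 mM KCl and 1 mM MgCl2.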

PI3Kα (p110α/p85α) = biological target: T1, PI3Kα (p110α/p85α) (Homo sapiens, UniProt P42336); assay: PI3Kα ADP-Glo assay; format: biochemical; settings: 20 μM PIP2, 10 μM ATP, 30 minutes
T1 construct: GST (N); made in house; host or cells: Baculovirus-infected Sf9 cells
T1 sequence (P42336 whole entry): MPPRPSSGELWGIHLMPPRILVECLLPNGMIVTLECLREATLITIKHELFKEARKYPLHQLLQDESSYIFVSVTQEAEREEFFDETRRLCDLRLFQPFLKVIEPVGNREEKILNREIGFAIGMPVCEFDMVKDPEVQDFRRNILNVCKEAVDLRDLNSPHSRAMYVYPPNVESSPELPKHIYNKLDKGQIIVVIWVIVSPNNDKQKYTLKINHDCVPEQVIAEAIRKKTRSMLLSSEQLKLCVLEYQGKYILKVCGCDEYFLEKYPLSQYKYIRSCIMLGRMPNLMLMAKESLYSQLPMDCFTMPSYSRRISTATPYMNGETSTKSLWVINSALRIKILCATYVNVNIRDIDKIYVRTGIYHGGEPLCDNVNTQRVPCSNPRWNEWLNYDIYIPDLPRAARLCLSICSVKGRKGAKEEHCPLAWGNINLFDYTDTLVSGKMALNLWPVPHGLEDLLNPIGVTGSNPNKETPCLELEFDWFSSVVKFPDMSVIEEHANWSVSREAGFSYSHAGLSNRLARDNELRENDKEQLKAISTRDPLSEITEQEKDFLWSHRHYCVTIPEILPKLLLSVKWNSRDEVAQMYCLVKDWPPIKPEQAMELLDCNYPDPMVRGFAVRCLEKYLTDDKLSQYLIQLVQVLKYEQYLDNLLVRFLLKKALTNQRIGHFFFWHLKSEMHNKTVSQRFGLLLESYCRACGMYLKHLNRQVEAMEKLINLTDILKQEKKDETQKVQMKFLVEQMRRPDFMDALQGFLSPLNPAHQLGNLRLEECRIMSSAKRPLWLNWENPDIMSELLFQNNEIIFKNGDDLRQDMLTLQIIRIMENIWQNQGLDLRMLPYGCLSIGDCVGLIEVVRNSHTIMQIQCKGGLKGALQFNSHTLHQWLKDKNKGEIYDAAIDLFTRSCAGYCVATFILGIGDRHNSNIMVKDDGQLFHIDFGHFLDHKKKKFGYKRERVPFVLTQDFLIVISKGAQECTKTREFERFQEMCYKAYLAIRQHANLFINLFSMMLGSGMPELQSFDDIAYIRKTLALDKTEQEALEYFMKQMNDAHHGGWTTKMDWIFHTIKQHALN
T1 sequence (P27986 whole entry partner): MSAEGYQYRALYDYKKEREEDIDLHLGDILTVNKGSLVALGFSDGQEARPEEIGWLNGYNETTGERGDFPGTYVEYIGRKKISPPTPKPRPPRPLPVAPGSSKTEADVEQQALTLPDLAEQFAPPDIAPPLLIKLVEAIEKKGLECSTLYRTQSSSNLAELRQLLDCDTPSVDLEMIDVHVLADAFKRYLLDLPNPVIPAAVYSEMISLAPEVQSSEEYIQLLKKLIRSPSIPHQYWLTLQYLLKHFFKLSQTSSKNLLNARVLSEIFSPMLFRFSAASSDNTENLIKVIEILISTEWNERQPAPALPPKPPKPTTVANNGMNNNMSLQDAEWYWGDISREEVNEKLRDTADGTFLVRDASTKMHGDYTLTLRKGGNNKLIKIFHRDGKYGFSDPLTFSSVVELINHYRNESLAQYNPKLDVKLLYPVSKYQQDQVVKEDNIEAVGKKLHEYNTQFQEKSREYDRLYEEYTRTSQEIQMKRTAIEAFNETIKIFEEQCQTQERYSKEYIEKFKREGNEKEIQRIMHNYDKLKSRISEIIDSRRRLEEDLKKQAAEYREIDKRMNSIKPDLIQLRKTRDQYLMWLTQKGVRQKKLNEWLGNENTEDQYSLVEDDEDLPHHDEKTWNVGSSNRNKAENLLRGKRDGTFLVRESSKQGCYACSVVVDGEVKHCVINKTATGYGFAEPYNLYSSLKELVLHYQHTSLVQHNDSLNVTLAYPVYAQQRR
Summary of the method: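 Luminescent ADP-Glo detection, after depletion of residual ATP, quantified ADP made by PI3Kα phosphorylating 20 μM PIP2 at 10 μM ATP. The kinase step ran 30 min at room temperature in HEPES pH 7.4 with MgCl2, DTT and orthovanadate, using baculovirus/Sf9-expressed full-length p110α/p85α complex.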

Row | Compound | IC50 [1] | IC50 (PI3Kα (p110α/p85α)) | melting point
1 | CN(Cc1cc2nc(-c3ccc(CN)cc3)nc(N3CCOCC3)c2s1)c1ncc(C(=O)NO)cn1 [Compound 135, 2-(((2-(4-(aminomethyl)phenyl)-4-morpholinothieno[3,2-d]pyrimidin-6-yl)methyl)(methyl)amino)-N-hydroxypyrimidine-5-carboxamide] | < 100 nM | 100 to 1000 nM | 184 to 186 °C
2 | CN(Cc1cc2nc(-c3cccc(CN)c3)nc(N3CCOCC3)c2s1)c1ncc(C(=O)NO)cn1 [Compound 137, 2-(((2-(3-(aminomethyl)phenyl)-4-morpholinothieno[3,2-d]pyrimidin-6-yl)methyl)(methyl)amino)-N-hydroxypyrimidine-5-carboxamide] | < 100 nM | 1000 to 10000 nM | 173 to 176 °C
3 | COCc1cccc(-c2nc(N3CCOCC3)c3sc(CN(C)c4ncc(C(=O)NO)cn4)cc3n2)c1 [Compound 139, N-hydroxy-2-(((2-(3-(methoxymethyl)phenyl)-4-morpholinothieno[3,2-d]pyrimidin-6-yl)methyl)(methyl)amino)pyrimidine-5-carboxamide] | < 100 nM | 100 to 1000 nM | 178 to 181 °C
4 | CN(Cc1cc2nc(-c3ccc(CO)cc3)nc(N3CCOCC3)c2s1)c1ncc(C(=O)NO)cn1 [Compound 140, N-hydroxy-2-(((2-(4-(hydroxymethyl)phenyl)-4-morpholinothieno[3,2-d]pyrimidin-6-yl)methyl)(methyl)amino)pyrimidine-5-carboxamide] | < 100 nM | 100 to 1000 nM | 218 to 223 °C
5 | CN(Cc1cc2nc(-c3ccccc3CO)nc(N3CCOCC3)c2s1)c1ncc(C(=O)NO)cn1 [Compound 141, N-hydroxy-2-(((2-(2-(hydroxymethyl)phenyl)-4-morpholinothieno[3,2-d]pyrimidin-6-yl)methyl)(methyl)amino)pyrimidine-5-carboxamide] | < 100 nM | 100 to 1000 nM | 173 to 176 °C
6 | CN(Cc1cc2nc(-c3ccc(C(N)=O)cc3)nc(N3CCOCC3)c2s1)c1ncc(C(=O)NO)cn1 [Compound 143, 2-(((2-(4-carbamoylphenyl)-4-morpholinothieno[3,2-d]pyrimidin-6-yl)methyl)(methyl)amino)-N-hydroxypyrimidine-5-carboxamide] | < 100 nM | 100 to 1000 nM | 200 to 202 °C
7 | CNC(=O)c1cccc(-c2nc(N3CCOCC3)c3sc(CN(C)c4ncc(C(=O)NO)cn4)cc3n2)c1 [Compound 144, N-hydroxy-2-(methyl((2-(3-(methylcarbamoyl)phenyl)-4-morpholinothieno[3,2-d]pyrimidin-6-yl)methyl)amino)pyrimidine-5-carboxamide] | < 100 nM | 1000 to 10000 nM | 215 to 217 °C
8 | CN(Cc1cc2nc(-c3ccc(C#N)cc3)nc(N3CCOCC3)c2s1)c1ncc(C(=O)NO)cn1 [Compound 146, 2-(((2-(4-cyanophenyl)-4-morpholinothieno[3,2-d]pyrimidin-6-yl)methyl)(methyl)amino)-N-hydroxypyrimidine-5-carboxamide] | < 100 nM | > 10000 nM | 214 to 216 °C
9 | CN(Cc1cc2nc(-c3ccc(Cl)cc3)nc(N3CCOCC3)c2s1)c1ncc(C(=O)NO)cn1 [Compound 147, 2-(((2-(4-chlorophenyl)-4-morpholinothieno[3,2-d]pyrimidin-6-yl)methyl)(methyl)amino)-N-hydroxypyrimidine-5-carboxamide] | < 100 nM | > 10000 nM | 153 °C
10 | CC(C)c1ccc(-c2nc(N3CCOCC3)c3sc(CN(C)c4ncc(C(=O)NO)cn4)cc3n2)cc1 [Compound 148, N-hydroxy-2-(((2-(4-isopropylphenyl)-4-morpholinothieno[3,2-d]pyrimidin-6-yl)methyl)(methyl)amino)pyrimidine-5-carboxamide] | < 100 nM | > 10000 nM | 155 °C (dec.)
11 | CN(Cc1cc2nc(-c3ccc(S(C)(=O)=O)cc3)nc(N3CCOCC3)c2s1)c1ncc(C(=O)NO)cn1 [Compound 149, N-hydroxy-2-(methyl((2-(4-(methylsulfonyl)phenyl)-4-morpholinothieno[3,2-d]pyrimidin-6-yl)methyl)amino)pyrimidine-5-carboxamide] | < 100 nM | > 10000 nM | 206 to 208 °C
12 | CNc1ccc(-c2nc(N3CCOCC3)c3sc(CN(C)c4ncc(C(=O)NO)cn4)cc3n2)cc1 [Compound 151, N-hydroxy-2-(methyl((2-(4-(methylamino)phenyl)-4-morpholinothieno[3,2-d]pyrimidin-6-yl)methyl)amino)pyrimidine-5-carboxamide] | < 100 nM | > 10000 nM | 218 to 220 °C
13 | CN(C)c1ccc(-c2nc(N3CCOCC3)c3sc(CN(C)c4ncc(C(=O)NO)cn4)cc3n2)cc1 [Compound 152, 2-(((2-(4-(dimethylamino)phenyl)-4-morpholinothieno[3,2-d]pyrimidin-6-yl)methyl)(methyl)amino)-N-hydroxypyrimidine-5-carboxamide] | < 100 nM | > 10000 nM | 208 to 210 °C
14 | CCNc1ccc(-c2nc(N3CCOCC3)c3sc(CN(C)c4ncc(C(=O)NO)cn4)cc3n2)cc1 [Compound 153, 2-(((2-(4-(ethylamino)phenyl)-4-morpholinothieno[3,2-d]pyrimidin-6-yl)methyl)(methyl)amino)-N-hydroxypyrimidine-5-carboxamide] | < 100 nM | > 10000 nM | 185 to 187 °C
15 | CCN(CC)c1ccc(-c2nc(N3CCOCC3)c3sc(CN(C)c4ncc(C(=O)NO)cn4)cc3n2)cc1 [Compound 154, 2-(((2-(4-(Diethylamino)phenyl)-4-morpholinothieno[3,2-d]pyrimidin-6-yl)methyl)(methyl)amino)-N-hydroxypyrimidine-5-carboxamide] | < 100 nM | > 10000 nM | 192 to 196 °C
16 | CN(Cc1cc2nc(-c3ccc(N4CCCC4)cc3)nc(N3CCOCC3)c2s1)c1ncc(C(=O)NO)cn1 [Compound 155, N-hydroxy-2-(methyl((4-morpholino-2-(4-(pyrrolidin-1-yl)phenyl)thieno[3,2-d]pyrimidin-6-yl)methyl)amino)pyrimidine-5-carboxamide] | < 100 nM | > 10000 nM | 187 to 192 °C
17 | CN(Cc1cc2nc(-c3ccc(N)c(N)c3)nc(N3CCOCC3)c2s1)c1ncc(C(=O)NO)cn1 [Compound 156, 2-(((2-(3,4-diaminophenyl)-4-morpholinothieno[3,2-d]pyrimidin-6-yl)methyl)(methyl)amino)-N-hydroxypyrimidine-5-carboxamide] | < 100 nM | 100 to 1000 nM | 222 to 225 °C
18 | CN(Cc1cc2nc(-c3cccc4[nH]ncc34)nc(Nc3ccccc3)c2s1)c1ncc(C(=O)NO)cn1 [Compound 164, 2-(((2-(1H-indazol-4-yl)-4-(phenylamino)thieno[3,2-d]pyrimidin-6-yl)methyl)(methyl)amino)-N-hydroxypyrimidine-5-carboxamide] | < 100 nM | < 100 nM | 232 to 235 °C
19 | CN(Cc1cc2nc(-c3cccc4[nH]ncc34)nc(Nc3ccccn3)c2s1)c1ncc(C(=O)NO)cn1 [Compound 168, 2-(((2-(1H-indazol-4-yl)-4-(pyridin-2-ylamino)thieno[3,2-d]pyrimidin-6-yl)methyl)(methyl)amino)-N-hydroxypyrimidine-5-carboxamide] | < 100 nM | 1000 to 10000 nM | 200 to 203 °C
20 | CN(Cc1cc2nc(-c3cccc4[nH]ccc34)nc(N3CCOCC3)c2s1)c1ncc(C(=O)NO)cn1 [Compound 176, 2-(((2-(1H-indol-4-yl)-4-morpholinothieno[3,2-d]pyrimidin-6-yl)methyl)(methyl)amino)-N-hydroxypyrimidine-5-carboxamide] | < 100 nM | 100 to 1000 nM | 200 to 212 °C
21 | CN(Cc1cc2nc(-c3cccc4c3CCN4)nc(N3CCOCC3)c2s1)c1ncc(C(=O)NO)cn1 [Compound 177, N-hydroxy-2-(((2-(indolin-4-yl)-4-morpholinothieno[3,2-d]pyrimidin-6-yl)methyl)(methyl)amino)pyrimidine-5-carboxamide] | < 100 nM | > 10000 nM | 146 to 156 °C
22 | CN(Cc1cc2nc(-c3ccc4c(c3)NCCO4)nc(N3CCOCC3)c2s1)c1ncc(C(=O)NO)cn1 [Compound 182, 2-(((2-(3,4-dihydro-2H-benzo[b][1,4]oxazin-6-yl)-4-morpholinothieno[3,2-d]pyrimidin-6-yl)methyl)(methyl)amino)-N-hydroxypyrimidine-5-carboxamide] | < 100 nM | 1000 to 10000 nM | 170 to 183 °C
23 | CN(Cc1cc2nc(-c3ccc4[nH]c(=O)[nH]c4c3)nc(N3CCOCC3)c2s1)c1ncc(C(=O)NO)cn1 [Compound 186, N-hydroxy-2-(methyl((4-morpholino-2-(2-oxo-2,3-dihydro-1H-benzo[d]imidazol-5-yl)thieno[3,2-d]pyrimidin-6-yl)methyl)amino)pyrimidine-5-carboxamide] | < 100 nM | > 10000 nM | 272 to 275 °C
